From patent US20170119034A1, “COMPOSITIONS AND METHODS FOR MODIFYING PERCEPTION OF SWEET TASTE” (University of Florida Research Foundation, Inc., priority 2012, published 2017)

Experiments:
[1] = system: perceived sweetness of tomato fruit (consumer panel); experiment: Tomato consumer taste panel: perceived sweetness (gLMS) regressed on fruit chemical content; format: in vivo, human; conditions: tomato
Description: (§1) Sensory analysis. Fully ripe fruit were harvested, and used for taste panels. A random subset of fruit was used for biochemical analysis. Three biological replicates, each consisting of 2-20 fruit (depending on fruit size), were assayed for each variety. […] Panelists were between the ages of 18 and 78 with a median age of 22. […] An average of 85 (range of 66-95) of these panelists evaluated between 4-6 varieties in a session. All panelists went through a training session to familiarize them with the scaling and procedures. Tomatoes were sliced into wedges (or in halves for grape/cherry types) and each panelist was given two pieces for evaluation. Panelists took a bite of each sample, chewed and swallowed it, and rated overall liking and liking for texture. They then rated the perceived intensities of sweetness, sourness, saltiness, umami sensation, bitterness and overall tomato flavor. They were free to take as many bites as necessary to complete the assessments. They were instructed to take a bite of an unsalted cracker and a sip of water between samples. Samples were presented to the panelists in a randomized order. Hedonic ratings used the hedonic gLMS. This scale assesses the liking for tomatoes in the context of all pleasure/displeasure experiences: 0=neutral, −100=strongest disliking of any kind experienced, and +100=strongest liking of any kind experienced. Sensory intensity ratings used the gLMS (7, 8, 19).This scale assesses taste and flavor sensations in the context of all sensory experience (7): 0=no sensation, 100=strongest sensation of any kind experienced. Both scales were devised to provide valid comparisons across subjects.
(§2) Statistical analysis. The 68 chemical compounds measured in this experiment were divided into six groups based upon biochemical properties: sugars, branched chain amino acids, lipids, carotenoids, phenolics, and acids. A small number of compounds for which biosynthetic pathways are not established were assigned to one of the six classes based upon their correlations with other classified compounds. All pairwise correlations among the set of 68 compounds were calculated. Correlation coefficients were sorted using Modulated Modularity Clustering (MMC) (9) as a visual aid for identifying compounds that are closely related in this sample (FIG. 1; Table 4). Biochemical groups were examined for compounds within the group that were highly correlated and compounds that were upstream in the relevant metabolic pathways were preferentially selected.
(§3) All analyses were performed in SAS v 9.2.
In conducting the multiple regression analysis on the tomato data set, the independent variables were the sugar content (glucose+fructose), and the flavor (indicated by the retronasal perception of volatiles), while the dependent variable was the perceived sweetness.

[2] = system: tomato flavor intensity (consumer panel); experiment: Tomato consumer taste panel: overall tomato flavor intensity (gLMS) versus fruit chemical content; format: in vivo, human
Description: as §1, §2, §3

[3] = system: perceived sourness of tomato fruit (consumer panel); experiment: Tomato consumer taste panel: sourness intensity versus fruit chemical content; format: in vivo, human; conditions: volatile-induced sourness independent of citric acid
Description: Sensory analysis. Fully ripe fruit were harvested, and used for taste panels. A random subset of fruit was used for biochemical analysis. Three biological replicates, each consisting of 2-20 fruit (depending on fruit size), were assayed for each variety. A group of 170 tomato consumers (64 male, 106 female) were recruited to evaluate all the varieties. Panelists were between the ages of 18 and 78 with a median age of 22. Panelists self-classified themselves as 101 White/Caucasian, 14 Black/African-American, 32 Asian/Pacific and […]. An average of 85 (range of 66-95) of these panelists evaluated between 4-6 varieties in a session. All panelists went through a training session to familiarize them with the scaling and procedures. Tomatoes were sliced into wedges (or in halves for grape/cherry types) and each panelist was given two pieces for evaluation. Panelists took a bite of each sample, chewed and swallowed it, and rated overall liking and liking for texture. They then rated the perceived intensities of sweetness, sourness, saltiness, umami sensation, bitterness and overall tomato flavor. They were free to take as many bites as necessary to complete the assessments. They were instructed to take a bite of an unsalted cracker and a sip of water between samples. Samples were presented to the panelists in a randomized order. Hedonic ratings used the hedonic gLMS. […]

[4] = system: perceived sweetness of tomato fruit (consumer panel); conditions: analysis of a volatile subset (Tieman 2012); cited from earlier work

CCC(C)C=O (centres unmarked) [2-methylbutanal]
association with sweetness after accounting for fructose ([1]; after accounting for fructose): independent predictors of sweetness after accounting for fructose
correlation with sweetness ([1]; direction of correlation): negatively correlated with sweetness
contribution to perceived sweetness ([1]; multiple regression analysis using the volatiles): inhibitory effect
association with sweetness ([1]; univariate models): showed evidence for association with sweetness in univariate models
association with flavor intensity after accounting for fructose ([2]; after accounting for fructose): independently significant after accounting for fructose
association with flavor intensity ([2]; univariate models): associated with flavor intensity in univariate models
contribution to sourness [3]: contributed to this sourness
enhancing sweetness intensity independent of fructose [4]: enhancing sweetness intensity independent of fructose
